Test results: PubChem BioAssay (NCI)
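Method: 48-hour compound exposure of cells in 96-well plates, five concentrations, linear interpolation of endpoints. The concentration for 50% growth inhibition is given as GI50. TGI denotes the concentration required for complete inhibition of growth.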

How the values were obtained:
Assay in all cases: NCI tumour cell line growth inhibition, 48 h
[1] = test system: ACHN renal
[2] = test system: CCRF-CEM leukemia
[3] = test system: EKVX NSCLC
[4] = test system: HOP-92 NSCLC
[5] = test system: IGROV1 ovarian
[6] = test system: K-562 leukemia
[7] = test system: MDA-MB-231 breast
[8] = test system: SF-268 CNS
[9] = test system: UACC-62 melanoma
[10] = test system: HL-60(TB) leukemia
[11] = test system: SNB-75 CNS

Row | Compound | TGI [1] | TGI [2] | TGI [3] | TGI [4] | TGI [5] | TGI [6] | TGI [7] | TGI [8] | TGI [9] | TGI [10] | TGI [11] | GI50 [1] | GI50 [3] | GI50 [4] | GI50 [5] | GI50 [7] | GI50 [8] | GI50 [11] | GI50 [9]
1 | Cn1c(N=[N+]=[N-])cc(=O)n(C)c1=O | > 100 µM | > 100 µM | > 100 µM | > 100 µM | > 100 µM | > 100 µM | > 100 µM | > 100 µM | > 100 µM |  |  |  |  |  |  |  |  |  | 
2 | Clc1cc(OCC23CC4CC(CC(C4)C2)C3)nc(OCC23CC4CC(CC(C4)C2)C3)n1 | > 100 µM | > 100 µM | > 100 µM |  | > 100 µM | > 100 µM | > 100 µM | > 100 µM | > 100 µM | > 100 µM | > 100 µM |  |  |  |  |  |  |  | 
3 | N/C(=N\N=C\c1cc2c(cc1Cl)OCO2)NO |  | > 100 µM | > 100 µM | > 95.1 µM | > 100 µM | > 100 µM |  | > 100 µM | > 84.1 µM | 41.7 µM | > 100 µM |  |  |  |  |  |  |  | 
4 | N#Cc1ccc(Nc2cnc3ccc(N)cc3n2)cc1 | > 100 µM | > 100 µM | > 100 µM | > 100 µM |  | > 100 µM |  | > 100 µM | > 100 µM | > 100 µM | > 100 µM |  |  |  |  |  |  |  | 
5 | CNc1ncnc2c1nnn2C | > 100 µM | > 100 µM | > 100 µM | > 100 µM | > 100 µM | > 100 µM |  |  | > 100 µM | > 100 µM | > 100 µM |  |  |  |  |  |  |  | 
6 | COc1ccc(-c2nnc(-c3c(C)n(C)n(-c4ccccc4)c3=O)o2)cc1 | > 100 µM | > 100 µM | > 100 µM | > 100 µM | > 100 µM | > 100 µM |  | > 100 µM | > 100 µM | > 100 µM | > 100 µM |  |  |  |  |  |  |  | 
7 | CC(O)c1cc2c(s1)C(=O)c1scc(C(C)O)c1C2=O (stereo unspecified) | 2.47 µM | > 100 µM | 2.93 µM | 7.07 µM | 3.63 µM | > 100 µM |  | 0.889 µM | 0.587 µM | > 100 µM | 0.767 µM |  |  |  |  |  |  |  | 
8 | Cn1cc(-c2nc(-c3c[nH]c4ccncc34)cs2)c2cc(F)ccc21 | 3.12 µM |  | 3.32 µM | 3.42 µM | 3.41 µM |  | 3.1 µM | 3.44 µM | 3.18 µM |  | 2.6 µM | 1.74 µM | 1.72 µM | 1.65 µM | 1.86 µM | 1.55 µM | 1.74 µM | 1.26 µM | 1.71 µM
9 | CC1CC(=O)Nc2ccc(N=NN(C)C)cc2N1C=O (stereo unspecified) | > 100 µM | > 100 µM | > 100 µM |  | > 100 µM | > 100 µM | > 100 µM | > 100 µM | > 100 µM |  | > 100 µM |  |  |  |  |  |  |  | 
10 | S=c1nc2sc3c(c2c(Nc2ccc(Br)cc2)[nH]1)CCN(N1CCc2c(sc4nc(=S)[nH]c(Nc5ccc(Br)cc5)c24)C1)C3 | > 50 µM | > 50 µM | > 50 µM |  | > 50 µM | > 50 µM | > 50 µM | > 50 µM | > 50 µM | > 50 µM | > 50 µM |  |  |  |  |  |  |  | 
11 | Cc1cc2c(c(C(=O)NCCC(=O)N[C@@H](C)C(=O)OCc3ccccc3)c1)Oc1c(cc(C)cc1C(=O)NCCC(=O)N[C@@H](C)C(=O)OCc1ccccc1)S2 | > 100 µM | > 100 µM | > 100 µM |  | > 100 µM | > 100 µM | > 100 µM | > 100 µM | > 100 µM |  | > 100 µM |  |  |  |  |  |  |  | 
12 | C[C@H](N)C(=O)N[C@@H]1[C@H]2C(=C(O)C[C@@H](O)[C@@H]2O)C(=O)O[C@@H]1C |  | > 100 µM | > 100 µM | > 100 µM | > 100 µM | > 100 µM |  | > 100 µM | > 100 µM | > 100 µM | > 100 µM |  |  |  |  |  |  |  | 
13 | COc1ccc2c(c1)CC1(O)COc3cc(OC)ccc3C1O2 (stereo unspecified) | > 100 µM | > 100 µM | > 100 µM | > 100 µM | > 100 µM |  | > 100 µM | > 100 µM | > 100 µM |  |  |  |  |  |  |  |  |  | 
14 | COc1ccc(N=N/C(=N/NC(=O)c2cc(Cl)ccc2C(=O)c2ccccc2)c2ccc(N(CCC#N)CCC#N)cc2C)cc1 | 88.7 µM | 19.8 µM | 61.1 µM |  | 27.7 µM | > 100 µM | 58.1 µM | > 100 µM | 51.8 µM |  | > 100 µM |  |  |  |  |  |  |  | 
15 | CCCCCCCC(=O)OCC(C[As](=O)(O)O)OC(=O)CCCCCCC (stereo unspecified) | 30.6 µM | 28 µM | 33.8 µM | 25.4 µM | 26.9 µM | 81.9 µM |  | 28.7 µM | 27 µM | 38.9 µM | 31.1 µM |  |  |  |  |  |  |  | 
16 | Cc1ccc(S(=O)(=O)C2c3nc4ccccc4cc3-c3nc4ccccc4nc32)cc1 (stereo unspecified) | > 100 µM | > 100 µM | > 100 µM | > 100 µM | > 100 µM | > 100 µM |  | > 100 µM | > 100 µM | > 100 µM | > 100 µM |  |  |  |  |  |  |  | 
17 | CCOC(=O)C1C[C@H]2CO[C@H](c3ccccc3)N2C1=O (stereo partly specified) | > 100 µM | > 100 µM | > 100 µM | > 100 µM | > 100 µM | > 100 µM | > 100 µM | > 100 µM | > 100 µM |  | > 100 µM |  |  |  |  |  |  |  | 
18 | O=S(=O)(O)c1cc(Nc2ccnc3ccccc23)c2c(S(=O)(=O)O)cc(S(=O)(=O)O)cc2c1 |  | > 100 µM | > 100 µM |  | > 100 µM |  | > 100 µM | > 100 µM | > 100 µM |  | > 100 µM |  |  |  |  |  |  |  | 
19 | N#CCOc1cccc(C2(N3CC=CCC3)CCCCC2)c1 | > 100 µM | > 100 µM | > 100 µM |  | > 100 µM | > 100 µM | > 100 µM | > 100 µM | > 100 µM | > 100 µM |  |  |  |  |  |  |  |  | 
20 | CCCCNC(=S)c1ccc(OC(=O)Nc2ccc(Cl)cc2)cc1 | > 100 µM | > 100 µM | > 100 µM |  | 70.4 µM | > 100 µM |  | > 100 µM | 93.6 µM | > 100 µM |  |  |  |  |  |  |  |  | 
21 | CCOC(=O)C1=CC(C)(C(=O)OCC)Nc2c(nc(SC)n(C)c2=O)N1 (stereo unspecified) | > 10 µM | > 10 µM | > 10 µM | > 10 µM | > 10 µM | > 10 µM | > 10 µM | > 10 µM |  |  | > 10 µM |  |  |  |  |  |  |  | 
22 | Cc1c(O)c(=O)ccn1CCc1c[nH]c2ccccc12 | 23.5 µM |  | 91.7 µM | 46.5 µM |  | 66.7 µM | 6.47 µM | 8.77 µM |  | 53.3 µM |  |  |  |  |  |  |  |  | 
